For experiment [1], the target named is intracellular GCN2 (phosphorylation of the GCN2 substrate eIF2α) (Homo sapiens, UniProt Q9P2K8). Briefly: GCN2 cellular inhibition assay (AlphaScreen SureFire P-eIF2α Ser51, borrelidin-treated U2OS cells). The class given is cell-based. In a few lines:
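Read-out: AlphaScreen SureFire phospho-eIF2α (Ser51) signal in U2OS lysates. Cells get 4-fold compound dilutions (top 40 μM final) plus 10 μM borrelidin, 1 h, 37 °C. Percent inhibition is relative to borrelidin-alone controls.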

The target in experiment [2] is GCN2 kinase (Homo sapiens, UniProt Q9P2K8). Briefly: GCN2 enzyme inhibition assay (Transcreener ADP2 fluorescence polarization). It counts as biochemical. To be noted: 280 μM ATP. In a few lines:
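Run at 25 °C in 25 mM Tris-HCl pH 7.5, 50 mM NaCl, 10 mM MgCl2, 1 mM DTT with 4 nM GCN2, 280 μM ATP and 200 μM (RS)7 peptide; compound (0–8 μM final) preincubated 10 min, reaction 1 h. ADP read by antibody/tracer FP; IC50 and Ki(app) from tight-binding fit.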

The mark [3] stands for this setting: compounds of Formula II, biomarker assay, phosphorylated eIF2α Ser51 in borrelidin-treated U2OS cells.
The mark [4] stands for this setting: compounds of Formula II, 4 nM GCN2 kinase.
Setting [5] is: compounds of Formula IV, biomarker assay, phosphorylated eIF2α Ser51 in borrelidin-treated U2OS cells.
[6] abbreviates: Enzyme activity for compounds of Formula IV, Ki(app), 25° C.

Where two headings read alike, the source gives them in different places.

intracellular GCN2 (phosphorylation of the GCN2 substrate eIF2α), sequence (Q9P2K8 whole entry): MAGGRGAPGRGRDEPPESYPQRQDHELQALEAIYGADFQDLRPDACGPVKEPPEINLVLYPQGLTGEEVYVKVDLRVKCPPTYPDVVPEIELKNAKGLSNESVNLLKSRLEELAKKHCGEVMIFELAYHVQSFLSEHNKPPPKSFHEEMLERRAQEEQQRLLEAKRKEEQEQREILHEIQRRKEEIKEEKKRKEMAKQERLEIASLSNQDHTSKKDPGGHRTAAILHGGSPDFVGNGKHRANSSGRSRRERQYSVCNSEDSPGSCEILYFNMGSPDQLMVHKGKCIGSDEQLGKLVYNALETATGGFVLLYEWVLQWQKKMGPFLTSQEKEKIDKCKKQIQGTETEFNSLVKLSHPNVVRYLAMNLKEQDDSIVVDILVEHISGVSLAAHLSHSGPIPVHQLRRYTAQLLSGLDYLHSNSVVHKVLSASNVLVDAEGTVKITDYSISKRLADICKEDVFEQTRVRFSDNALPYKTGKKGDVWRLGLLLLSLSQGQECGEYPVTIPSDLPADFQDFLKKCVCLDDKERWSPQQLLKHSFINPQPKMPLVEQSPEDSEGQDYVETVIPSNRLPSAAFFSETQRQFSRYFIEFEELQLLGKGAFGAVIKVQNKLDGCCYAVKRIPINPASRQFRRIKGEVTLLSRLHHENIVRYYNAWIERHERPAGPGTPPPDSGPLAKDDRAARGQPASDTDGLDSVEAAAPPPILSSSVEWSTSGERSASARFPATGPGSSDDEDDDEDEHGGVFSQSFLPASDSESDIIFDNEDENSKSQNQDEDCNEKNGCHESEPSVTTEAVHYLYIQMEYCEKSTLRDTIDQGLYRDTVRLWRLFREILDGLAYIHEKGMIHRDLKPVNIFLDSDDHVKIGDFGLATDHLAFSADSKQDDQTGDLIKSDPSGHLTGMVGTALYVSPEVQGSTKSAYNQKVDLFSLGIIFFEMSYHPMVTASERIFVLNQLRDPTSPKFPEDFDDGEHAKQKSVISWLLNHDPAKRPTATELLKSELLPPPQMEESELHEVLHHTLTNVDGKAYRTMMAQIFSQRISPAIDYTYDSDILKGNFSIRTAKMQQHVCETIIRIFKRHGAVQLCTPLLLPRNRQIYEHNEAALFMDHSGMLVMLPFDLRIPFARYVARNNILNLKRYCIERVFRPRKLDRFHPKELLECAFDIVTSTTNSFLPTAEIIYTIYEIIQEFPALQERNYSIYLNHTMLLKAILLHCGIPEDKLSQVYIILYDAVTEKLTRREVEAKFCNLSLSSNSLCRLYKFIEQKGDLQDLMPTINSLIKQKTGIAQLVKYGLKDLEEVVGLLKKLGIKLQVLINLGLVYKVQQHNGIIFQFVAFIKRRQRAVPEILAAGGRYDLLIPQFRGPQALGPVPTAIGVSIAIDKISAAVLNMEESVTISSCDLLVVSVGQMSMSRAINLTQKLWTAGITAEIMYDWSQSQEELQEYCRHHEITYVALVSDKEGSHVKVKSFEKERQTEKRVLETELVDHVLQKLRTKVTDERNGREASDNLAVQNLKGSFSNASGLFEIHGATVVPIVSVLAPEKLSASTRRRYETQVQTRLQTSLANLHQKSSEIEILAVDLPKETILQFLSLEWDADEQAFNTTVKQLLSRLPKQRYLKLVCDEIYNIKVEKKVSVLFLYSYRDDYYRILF
GCN2 kinase, sequence (Q9P2K8 whole entry): as above

By IC50 is commonly meant the concentration at which inhibition is half-maximal. `C[C@H]1CN(c2cc(-c3cnc4ccc(C(F)F)nn34)ncn2)C[C@@H](CNS(N)(=O)=O)C1(F)F` [II-316, 1-(((3S,5S)-1-(6-(6-(Difluoromethyl)imidazo[1,2-b]pyridazin-3-yl)pyrimidin-4-yl)-4,4-difluoro-5-methylpiperidin-3-yl)methyl)sulfuric diamide]: the IC50 in experiment [1] (setting [3]) was less than 500 nM. The molecule further displayed a Ki in experiment [2] (setting [4]) of less than 10 nM.

Molecule `CC(O)c1ccc2ncc(-c3cc(N4C[C@@H](CNS(C)(=O)=O)C(F)(F)[C@@H](C)C4)ncn3)n2n1` (stereo partly drawn) [II-337, N-(((3S,5S)-4,4-Difluoro-1-(6-(6-(1-hydroxyethyl)imidazo[1,2-b]pyridazin-3-yl)pyrimidin-4-yl)-5-methylpiperidin-3-yl)methyl)methanesulfonamide] had a concentration for half-maximal inhibition (IC50) in experiment [1] (setting [3]) of more than 5000 nM. The Ki in experiment [2] (setting [4]) is 10 to 1000 nM.

Regarding `N#Cc1ccc2ncc(-c3cc(N4CCN5C(=O)CCCC5C4)ncn3)n2n1` (stereo not shown) [II-699, 3-(6-(6-Oxooctahydro-2H-pyrido[1,2-a]pyrazin-2-yl)pyrimidin-4-yl)imidazo[1,2-b]pyridazine-6-carbonitrile], in experiment [1] (setting [3]), the IC50 is more than 5000 nM. The molecule also displayed a Ki in experiment [2] (setting [4]) of 10 to 1000 nM.

Take `CS(=O)(=O)N(O)CC1CN(c2cc(-c3cnc4ccc(C(F)F)nn34)ccn2)CCC1(F)F` (stereo not shown) [II-131, N-((1-(4-(6-(Difluoromethyl)imidazo[1,2-b]pyridazin-3-yl)pyridin-2-yl)-4,4-difluoropiperidin-3-yl)methyl)-N-hydroxymethanesulfonamide]: in experiment [1] (setting [3]), the IC50 was less than 500 nM. Also, in experiment [2] (setting [4]), the Ki is less than 10 nM.

With `FC(F)(F)c1cn2c(-c3nccc(N4CCOC(c5cn[nH]c5)C4)n3)cnc2s1` (stereo not shown) [Compound V-20, 2-(1H-pyrazol-4-yl)-4-(2-(2-(trifluoromethyl)imidazo[2,1-b]thiazol-5-yl)pyrimidin-4-yl)morpholine], the IC50 in experiment [1] (compounds of Formula V, U2OS cells, 10 μM borrelidin, 1 h, read-out: GCN2 Biomarker (IC50)) is less than 500 nM. The same molecule came in with a Ki in experiment [2] (compounds of Formula V, 4 nM GCN2 kinase) of less than 10 nM.

Molecule `CCN1CCN(c2cc(-c3cnc4ccc(C(F)F)nn34)ncn2)C(C)C1CNS(C)(=O)=O` (stereo not shown) [II-482, N-((4-(6-(6-(difluoromethyl)imidazo[12-b]pyridazin-3-yl)pyrimidin-4-yl)-1-ethyl-3-methylpiperazin-2-yl)methyl)methanesulfonamide] gave an IC50 in experiment [1] (setting [3]) of less than 500 nM. This molecule came in with a Ki in experiment [2] (setting [4]) of less than 10 nM.

In experiment [1] (setting [3]), `FC(F)c1ccc2ncc(-c3cc(N4CCOC(c5cn[nH]c5)C4)ncn3)n2n1` (stereo not shown) [II-4, 4-(6-(6-(Difluoromethyl)imidazo[1,2-b]pyridazin-3-yl)pyrimidin-4-yl)-2-(1H-pyrazol-4-yl)morpholine] showed an IC50 of 500 to 5000 nM. The molecule also displayed a Ki in experiment [2] (setting [4]) of 10 to 1000 nM.

On to `CC1C(CNS(C)(=O)=O)N(C)CCN1c1cc(-c2cnc3ccc(C(F)F)nn23)ncn1` (mixture of isomers) [II-312, N-((4-(6-(6-(Difluoromethyl)imidazo[1,2-b]pyridazin-3-yl)pyrimidin-4-yl)-1,3-dimethylpiperazin-2-yl)methyl)methanesulfonamide], for which the IC50 in experiment [1] (setting [3]) is less than 500 nM. Besides, the Ki in experiment [2] (setting [4]) was less than 10 nM.

For `NS(=O)(=O)NCC1CCCN(c2cc(-c3cnc4ccc(C(F)F)nn34)ncn2)C1` (single isomer, unassigned) [II-277], the IC50 in experiment [1] (setting [3]) was 500 to 5000 nM. This molecule also gave a Ki in experiment [2] (setting [4]) of less than 10 nM.

Take `CS(C)(=O)=NC1CCCN(c2cc(-c3cnc4ccc(C(F)(F)F)nn34)ncn2)C1` (stereo not shown) [II-407, Dimethyl((1-(6-(6-(trifluoromethyl)imidazo[1,2-b]pyridazin-3-yl)pyrimidin-4-yl)piperidin-3-yl)imino)-λ^6-sulfanone]: the IC50 in experiment [1] (setting [3]) was more than 5000 nM. Also, the Ki in experiment [2] (setting [4]) fell in the range of 10 to 1000 nM.

In the case of `CS(=O)(=O)NC[C@H]1CN(c2cc(-c3cnc4ccc(C(F)F)nn34)ncn2)C[C@@H](C(F)(F)F)O1` [II-306, N-(((2R,6S)-4-(6-(6-(Difluoromethyl)imidazo[1,2-b]pyridazin-3-yl)pyrimidin-4-yl)-6-(trifluoromethyl)morpholin-2-yl)methyl)methanesulfonamide], the IC50 in experiment [1] (setting [3]) was in the range of 500 to 5000 nM. In experiment [2] (setting [4]), the Ki fell in the range of 10 to 1000 nM.

In the case of `CC1CC(N=S(C)(C)=O)CN(c2cc(-c3cnc4ccc(C(F)F)nn34)c(F)cn2)C1` (single isomer, unassigned) [II-723, ((1-(4-(6-(Difluoromethyl)imidazo[1,2-b]pyridazin-3-yl)-5-fluoropyridin-2-yl)-5-methylpiperidin-3-yl)imino)dimethyl-λ^6-sulfanone], the IC50 in experiment [1] (setting [3]) is 500 to 5000 nM. Besides, in experiment [2] (setting [4]), the Ki lay within 10 to 1000 nM.

The molecule `CS(=O)(=O)N1CCCN(c2cc(-c3cnc4ccc(C(F)F)nn34)ncn2)CC1` [II-22, 6-(Difluoromethyl)-3-(6-(4-(methylsulfonyl)-1,4-diazepan-1-yl)pyrimidin-4-yl)imidazo[1,2-b]pyridazine] yielded an IC50 in experiment [1] (setting [3]) of more than 5000 nM. The Ki in experiment [2] (setting [4]) was in the range of 10 to 1000 nM.

`N#CCC(=O)N1CCCC(c2cc(-c3cnc4ccc(C(F)F)nn34)ncn2)C1` (stereo not shown) [II-30, 3-(3-(6-(6-(Difluoromethyl)imidazo[1,2-b]pyridazin-3-yl)pyrimidin-4-yl)piperidin-1-yl)-3-oxopropanenitrile] showed an IC50 in experiment [1] (setting [3]) of 500 to 5000 nM. In experiment [2] (setting [4]), this molecule returned a Ki of 10 to 1000 nM.

Turning to `FC(F)c1ccc2ncc(-c3cc(-c4cnn(C5CCOCC5)c4)ncn3)n2n1` [II-709, 6-(Difluoromethyl)-3-[6-(1-tetrahydropyran-4-ylpyrazol-4-yl)pyrimidin-4-yl]imidazo[1,2-b]pyridazine], the IC50 in experiment [1] (setting [3]) lay in the range of 500 to 5000 nM. In experiment [2] (setting [4]), the Ki fell in the range of 10 to 1000 nM.

`CC1CCC(CNS(C)(=O)=O)CN1c1cc(-c2cnc3ccc(C(F)F)nn23)ncn1` (stereo not shown) [II-248, N-((1-(6-(6-(Difluoromethyl)imidazo[1,2-b]pyridazin-3-yl)pyrimidin-4-yl)-6-methylpiperidin-3-yl)methyl)methanesulfonamide] displayed an IC50 in experiment [1] (setting [3]) of 500 to 5000 nM. In addition, the Ki in experiment [2] (setting [4]) is 10 to 1000 nM.

Take `CN1CCN(c2cc(-c3cnc4ccc(C(F)F)nn34)ncn2)CC1C(N)=O` (stereo not shown) [II-453, 4-(6-(6-(Difluoromethyl)imidazo[1,2-b]pyridazin-3-yl)pyrimidin-4-yl)-1-methylpiperazine-2-carboxamide]: the IC50 in experiment [1] (setting [3]) is more than 5000 nM. The Ki in experiment [2] (setting [4]) fell in the range of 10 to 1000 nM.

As to `NS(=O)(=O)CCC1CCCN(c2cc(-c3cnc4ccc(C(F)F)nn34)ncn2)C1` (stereo not shown) [II-317, 2-(1-(6-(6-(Difluoromethyl)imidazo[12-b]pyridazin-3-yl)pyrimidin-4-yl)piperidin-3-yl)ethane-1-sulfonamide], the IC50 in experiment [1] (setting [3]) lay within 500 to 5000 nM. In experiment [2] (setting [4]), this molecule yielded a Ki of 10 to 1000 nM.

The molecule `FC(F)(F)c1ccc2ncc(-c3ccnc(N4CCOC(c5cn[nH]c5)C4)c3)n2n1` (single isomer, unassigned) [II-230, 2-(1H-Pyrazol-4-yl)-4-(4-(6-(trifluoromethyl)imidazo[1,2-b]pyridazin-3-yl)pyridin-2-yl)morpholine] gave an IC50 in experiment [1] (setting [3]) of less than 500 nM. The Ki in experiment [2] (setting [4]) was less than 10 nM.

As for `OCCC1CN(c2cc(-c3cnc4ccc(C(F)(F)F)nn34)ncn2)CCO1` (stereo not shown) [II-500, 2-(4-(6-(6-(Trifluoromethyl)imidazo[1,2-b]pyridazin-3-yl)pyrimidin-4-yl)morpholin-2-yl)ethan-1-ol], the IC50 in experiment [1] (setting [3]) is more than 5000 nM. The molecule further displayed a Ki in experiment [2] (setting [4]) of 10 to 1000 nM.

As to `CC1C(CNS(C)(=O)=O)C(C)(O)C(C)CN1c1cc(-c2cnc3ccc(C(F)F)nn23)ncn1` (stereo not shown) [II-618, N-((1-(6-(6-(Difluoromethyl)imidazo[1,2-b]pyridazin-3-yl)pyrimidin-4-yl)-4-hydroxy-2,4,5-trimethylpiperidin-3-yl)methyl)methanesulfonamide], the IC50 in experiment [1] (setting [3]) is less than 500 nM. This molecule displayed a Ki in experiment [2] (setting [4]) of less than 10 nM.

`CC1CC(F)(F)C(CNS(C)(=O)=O)CN1c1cc(-c2cnc3ccc(C(F)F)nn23)ncn1` (single isomer, unassigned) [II-305, N-((1-(6-(6-(Difluoromethyl)imidazo[1,2-b]pyridazin-3-yl)pyrimidin-4-yl)-4,4-difluoro-6-methylpiperidin-3-yl)methyl)methanesulfonamide] had an IC50 in experiment [1] (setting [3]) of more than 5000 nM. Also, the Ki in experiment [2] (setting [4]) lay in the range of 10 to 1000 nM.

Take `FC(F)(F)c1cn2c(-c3nccc(-c4cnn(C5CCOC5)c4)n3)cnc2cn1` (stereo not shown) [IV-449, 3-(4-(1-(Tetrahydrofuran-3-yl)-1H-pyrazol-4-yl)pyrimidin-2-yl)-6-(trifluoromethyl)imidazo[1,2-a]pyrazine]: the IC50 in experiment [1] (setting [5]) is more than 5000 nM. Moreover, the Ki in experiment [2] (setting [6]) lay in the range of 100 to 1000 nM.

In experiment [1] (setting [3]), `CC1C(CNS(C)(=O)=O)C(F)(F)CCN1c1cc(-c2cnc3ccc(C(F)F)nn23)ncn1` (stereo not shown) [II-432, N-((1-(6-(6-(Difluoromethyl)imidazo[1,2-b]pyridazin-3-yl)pyrimidin-4-yl)-4,4-difluoro-2-methylpiperidin-3-yl)methyl)methanesulfonamide] yielded an IC50 of less than 500 nM. For the same molecule, the Ki in experiment [2] (setting [4]) was less than 10 nM.

Take `FC(F)(F)c1cn2c(-c3nccc(N4CCCCC4)n3)cnc2cn1` [IV-423, 3-(4-(Piperidin-1-yl)pyrimidin-2-yl)-6-(trifluoromethyl)imidazo[1,2-a]pyrazine]: the IC50 in experiment [1] (setting [5]) was more than 5000 nM. Also, the Ki in experiment [2] (setting [6]) lay in the range of 100 to 1000 nM.

In experiment [1] (setting [3]), `NS(=O)(=O)CC1CCCN(c2cc(-c3cnc4ccc(C(F)F)nn34)ccn2)C1` (stereo not shown) [II-144, (1-(4-(6-(Difluoromethyl)imidazo[1,2-b]pyridazin-3-yl)pyridin-2-yl)piperidin-3-yl)methanesulfonamide] gave an IC50 of 500 to 5000 nM. The molecule further registered a Ki in experiment [2] (setting [4]) of 10 to 1000 nM.

The record behind these values is patent US10988477B2 (Merck Patent GmbH, priority 2018, dated 2021).
